Where “and” joins values, the source holds several entries; their conditions need not be identical. Identical values can stand only once.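 In this assay, cells in 96-well plates receive the compound at five concentrations for 48 hours. Endpoints are linearly interpolated between the surrounding concentrations. Abbreviation: GI50, concentration required for 50% inhibition of growth. TGI: concentration producing complete growth inhibition.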

What all share (experiment): NCI tumour cell line growth inhibition, 48 h
In test [1] the test system is MDA-N.
Test [2] concerns NCI/ADR-RES ovarian.
Test [3] has as its system BT-549 breast.
The test system of test [4] is MDA-MB-435.
The subject of test [5] is MCF7 breast.
Test [6] concerns DMS 114 small cell lung.
Test [7] relates to DLD-1 colon.
Test [8] relates to DMS 273 small cell lung.
Test [9] concerns RXF-631 renal.

Take `Cc1cc(OC2OC(CO)C(O)C(O)C2O)ccc1O` (stereo unspecified): the TGI in test [1], in [2], in test [3], in [4] and in test [5] was above 100 µM in each case.

As to `CN1CCCc2nc3ccccc3n2C1`, the TGI in test [6], in test [7] and in [8] was above 100 µM throughout.

With `CCCCCCCCCCCCCCCC(=O)OCC1OC(n2cc(F)c(=O)[nH]c2=O)C(NC(=O)OCc2ccccc2)C(O)C1O` (stereo unspecified), the values for the TGI in [6], in [8] and in [9] were 33.4 µM, 32.4 µM and 34.9 µM, respectively.

In the case of `CCCCCCCCCCCCCC(=O)O[C@H]1CC[C@H](NC(=O)[C@H](OC)[C@H](O)[C@@H](O)[C@H](O)/C=C/C(C)C)C(=O)N(C)C1`, the TGI was 0.817 µM in test [6]; 15 µM and > 23.8 µM in [7]; 0.00403 µM in [8]; 15 µM and 4.07 µM in [9]. Moreover, the results for the GI50 in [7] and in [9] were 0.00278 µM and 0.00238 µM, respectively.

For the compound `O=C1OC(=O)c2c1nc1ccccc1c2-c1ccccc1`, the TGI in [6], in [7], in test [8] and in test [9] was above 100 µM throughout.

On to `C=C1C(=O)O[C@@H]2C[C@@]3(C)[C@H](O)CCC(=C)[C@@H]3C[C@H]12`, for which the TGI worked out at 42.2 µM in test [6], 16.5 µM in test [7], 27.4 µM in [8] and 28.1 µM in test [9].

For the compound `O=c1c2ccccc2nc(-c2cccc(Cl)c2)n1NC1OC(CO)C(O)C(O)C1O` (stereo unspecified), the TGI in test [6], in test [8] and in test [9] was above 100 µM throughout.

Take `CC1CCCP(=O)(c2ccccc2)CCC1` (stereo unspecified): the TGI in test [6], in [7], in test [8] and in [9] was above 100 µM throughout.

Consider `O=C([O-])c1ccc([I+]c2ccccc2)cc1`, for which the TGI in [6], in test [7], in [8] and in test [9] was above 100 µM each time.

With `CCc1c(OC(C)=O)c2c(NC3OC(COC(C)=O)C(OC(C)=O)C(OC(C)=O)C3OC(C)=O)nc(SC)nc2oc1=O` (stereo unspecified), the TGI in test [6], in test [7] and in [9] was above 100 µM in each case.

For `CC(C)(C)OC(=O)N[C@H]1CC(=O)c2ccccc2N(CC(=O)O)C1=O`, the TGI in [6], in test [7], in [8] and in test [9] was above 100 µM in each case.

Regarding `O=[N+]([O-])c1cccnc1S(=O)(=O)c1ccccc1`, the TGI in test [6] amounted to 8.53 µM; in test [7], 7.27 µM; in test [8], 21.3 µM; in test [9], 8.01 µM.

In the case of `COC(=O)C1CCC(C)CC1=O` (stereo unspecified), the TGI in [6], in test [7], in test [8] and in test [9] was above 100 µM throughout.

Take `CS(=O)(=O)OCCN1CCN(C(=O)c2ccc(Cl)c3c(Nc4ccc(S(=O)(=O)N=C(N)N)cc4)c4ccccc4nc23)CC1`: the TGI in test [6], in [7], in test [8] and in [9] was above 100 µM throughout.

For the compound `CC[n+]1c(-c2ccccc2)c2cc(N)ccc2c2ccc(N)cc21`, the TGI in test [1] was 19 µM; in test [6] it was 10.1 µM; in test [8], 10.7 µM; in [2] it was above 100 µM; in [3] it was 3.01 µM and 3.87 µM; in test [4], 2.56 µM and 12.5 µM. The TGI in [5] is 12.9 µM and 15.3 µM. Further, the GI50 was 0.831 µM in test [3], 1.11 µM in test [4] and 1.07 µM in test [5].

On to `CC(C)(C)C1=NO[C@H]2[C@@H](NC(=O)c3ccccc3)CC[C@@H]12`, for which the TGI in test [6] and in [7] was above 100 µM each time.

As to `O=C1C2C(C(=O)N1Cc1ccccc1)N(Cc1ccccc1)C(=O)N2Cc1ccccc1` (stereo unspecified), the TGI in test [6], in test [7] and in test [9] was above 100 µM throughout.

Consider `CNC(=O)OCc1nc(SSc2nc(COC(=O)NC)c(COC(=O)NC)n2C)n(C)c1COC(=O)NC`, for which the TGI in [6], in test [7], in test [8] and in test [9] was above 100 µM each time.

As to `N=C(N)n1cc(/C=N/N=C(N)N)cn1`, the TGI in [1], in test [2], in [3], in test [4] and in [5] was above 100 µM throughout.

For `C/C(=N\NC(=S)N1CCC1)c1ccccn1`, the GI50 was 0.476 µM in [1] and 0.357 µM in [4]. The TGI was above 100 µM in test [1]; above 100 µM in test [7]; 1.82 µM in test [8]; above 64.6 µM in [9]; 73.3 µM in [3]; 73.7 µM in test [4]. Moreover, the TGI in [5] was 0.00635 µM.

Turning to `C1CN2CCO[SiH](O1)OCC2`, the TGI in test [6], in test [7] and in test [8] was above 100 µM each time.

For `O=C(O)c1ccccc1C(=O)c1ccco1`, the TGI in [6], in [7] and in [8] was above 100 µM in each case.

As to `[O-][n+]1c2cccc(O)c2[n+]([O-])c2cccc(O)c21`, the TGI in [1], in test [2], in [3], in test [4] and in test [5] was above 100 µM each time.

On to `CCOC(=O)C1=C(C)N(NC(N)=O)C2(N)N(NC(N)=O)C(C)=C(C(=O)OCC)C12C#N` (stereo unspecified), for which the TGI in test [6], in test [7], in [8] and in test [9] was above 100 µM throughout.

With `N#Cc1c(-c2ccccc2)c(-c2ccccc2)cc2c(=O)c3ccc(Cl)cc3[nH]c12`, the TGI in test [7] and in test [8] was above 100 µM each time.

For the compound `Nc1nc(-c2ccccc2)c(CC(=O)O)s1`, the TGI in [1], in test [2], in [3], in test [4] and in test [5] was above 100 µM throughout.

Take `O=C1C=CC2(O)OCC3C=C4O[C@@H]5OC6(CCCCC6)O[C@@H]5C4[C@@H]2[C@@H]13` (stereo partly specified): the TGI was 69.2 µM in test [6], 50.6 µM in test [7] and above 100 µM in [8].

In the case of `CC(C)N(C(=O)C12C3C4C1C1C4(C#N)C3C12C(=O)O)C(C)C` (stereo unspecified), the TGI in [6], in [7], in [8] and in test [9] was above 100 µM throughout.

Regarding `O=C(Nc1ccccc1C(=O)NC(=O)c1ccccc1NC(=O)c1ccccc1)c1ccccc1`, the TGI in test [6] was 9.74 µM; in test [7] it was 29.7 µM; in test [8] it was 7.78 µM.

For `Cc1ccc(-n2nc(C(OC3OC(CO)C(O)C(O)C3O)C(O)CO)c3nc4cc(C)c(C)cc4nc32)cc1` (stereo unspecified), the TGI in test [6], in test [7] and in test [9] was above 100 µM each time.

As for `CC(C)(C)O/N=C/c1cc(NC(=S)c2ccccc2)ccc1Cl`, the TGI in test [1] was 29.9 µM; in test [2], 33.5 µM; in [3], 35.1 µM; in test [4], 88.7 µM; in [5] it was above 100 µM.

For the compound `CCCCCCCCCC1CC(=O)OC23CCCC(=O)C12O3` (stereo unspecified), the TGI in test [6], in test [7] and in test [8] was above 100 µM in each case.

Turning to `O=C1C=CC2(CCC23C=CC(=O)O3)O1` (stereo unspecified), the TGI in test [6], in [7] and in [9] was above 100 µM each time.

Turning to `CC(C)c1ccc(Cc2ccc(C(C)C)c(NC(=O)C(=O)Cc3cnc4ccccc4n3)c2C(C)C)c(C(C)C)c1NC(=O)C(=O)Cc1cnc2ccccc2n1`, the TGI in test [6], in test [7] and in test [9] was above 100 µM throughout.

As for `CCOC(=O)C[C@@]12CCCN[C@]1(C)CCc1ccccc12`, in [7], the TGI was above 100 µM.

Regarding `Cc1nc2ccncc2[nH]1`, the TGI in test [6], in [7], in [8] and in test [9] was above 100 µM each time.

Turning to `N#CN1CC[C@H](C(=O)Nc2ncc(-c3ccccc3)s2)C1`, the GI50 in test [2] was 0.724 µM; in test [3] it was 0.156 µM; in test [4], 0.273 µM; in [5], 0.19 µM. In addition, the TGI worked out at 8.01 µM in test [2], 0.821 µM in test [3], 1.73 µM in [4] and 1.32 µM in [5].

For `N#Cc1ccccc1Sc1ccccc1N`, the TGI in test [6], in [7] and in test [8] was above 100 µM in each case.

In test [7], `C#Cc1cccc(NC(=O)/C=C\C(=O)O)c1` had a TGI above 100 µM.

Consider `C[n+]1cn(CC(=O)c2ccccc2)c(C(N)=O)c1N`, for which the TGI in [6] was 64.6 µM; in test [7], above 100 µM; in test [8] it was above 100 µM; in test [9], above 100 µM.

Consider `N#CC(C(=O)Nc1ccccc1)C1=C(Cl)C(=O)c2ccccc2C1=O` (stereo unspecified), for which the values for the TGI in [6] and in test [7] were 41.7 µM and 40.2 µM, respectively.

In the case of `COc1ccc(N(CC(=O)O)N=O)cc1`, the TGI in [1], in test [2], in test [3], in test [4] and in [5] was above 100 µM each time.

With `O=[N+]([O-])/C=C/c1ccc2ccccc2c1`, the TGI was above 28 µM in test [2], 7.8 µM in test [3], 4.58 µM in test [4] and above 100 µM in test [5].

As to `O=C(O)c1ccccc1NCn1nc(-c2ccccc2O)oc1=S`, the GI50 is 54 µM in test [2], 73.8 µM in [3], above 100 µM in test [4] and 46.7 µM in [5]. Moreover, the TGI in test [2], in [3], in test [4] and in test [5] was above 100 µM throughout.

For `CCC(Oc1ccc(OC)c2c1C(=O)CCC2)C(=O)O` (stereo unspecified), the TGI in test [6], in [7] and in test [8] was above 100 µM each time.

Regarding `Nc1c(C(=O)Nc2ccccc2)sc2nc3c(cc12)C(=O)CCC3`, the GI50 is 0.399 µM in test [2], 3.17 µM in [3], 0.139 µM in test [4] and 0.366 µM in test [5]. Also, the TGI in test [2] was 10.6 µM; in test [3], above 100 µM; in test [4], above 100 µM; in test [5], above 100 µM.

In the case of `COc1ccccc1/C=C(\NC(=O)c1ccccc1)c1nc2ccc(Cl)cc2[nH]1`, the TGI is 52.7 µM in test [6], 88.9 µM in test [7] and above 100 µM in test [8].

The record behind these values is PubChem BioAssay (NCI).
